# Results from patent publication US20140039044A1, “Hydroxylated Polymethoxyflavone Compositions” (WLLGEN, INC., priority 2006, published 2014).
# What was measured:
# Format in all cases: cell-based, human
# [1] = system: MCF-7 breast cancer cells; experiment: Apoptosis assay (Annexin V, Hoechst 33342); conditions: MCF-7 cells; for Apoptosis by morphological criteria (nuclear fragmentation): Hoechst 33342
# Procedure: (§1) MCF-7 cells were maintained and assayed as described in Section 8.4 above. Apoptosis was evaluated by the plasma membrane and nuclear changes as previously described in Sergeev (2004) J. Steroid Biochem. Mol. Biol. 89-90:419-425. Briefly, An Annexin V assay (ALEXA FLUOR 488 Annexin V Assay Kit; Molecular Probes) was used for detection of the apoptotic plasma membrane (loss of membrane asymmetry due to phosphatidylserine translocation). Fluorescence (485 nm excitation, 530 nm emission) of the Annexin V-abeled cells grown in 96-well plates was measured in the FLx800 plate reader with KC software (BioTek) and expressed in fluorescence units per 1×10^3 cells. Propidium iodide uptake was used to evaluate non-apoptotic and apoptotic cell death (the dye permeates plasma membrane and stain nucleic acids of both necrotic and the late apoptotic cells). Fluorescence (530 nm excitation, 620 nm emission) of the propidium iodide-labeled cells was also measured in the FLx800 reader. Additionally, HOECHST 33342 and ALEXA FLUOR 488 Annexin V were employed to visualize apoptotic nuclei (nuclear fragmentation) and the apoptotic plasma membrane, respectively. Fluorescence microscopy of HOECHST 33342- and Annexin V-labeled cells was performed as described below for the cellular Ca^2+ and immunofluorescence imaging.
# [2] = system: MCF-7 breast cancer cells; experiment: Cell death by propidium iodide uptake; conditions: MCF-7 cells; for Cell death (propidium iodide), in words: evident at day 6, FIG. 9
# Procedure: as §1
# [3] = system: Ca^2+ influx in MCF-7 cells; experiment: Ca2+ influx (Mn2+ entry rate, fura-2 quench); conditions: for Ca^2+ influx, in words: 25 μM; for Increase of Ca^2+ influx (Ca^2+ entry rates): compound 4: 6.25 μM, compound 5: 12.5 μM
# Procedure: To evaluate Ca^2+ influx from the extracellular space, the Mn^2+ entry rate, as a reporter of Ca^2+ influx, was measured. The images were recorded at excitation of 360 nm (the fura-2 isosbestic point) and 2 mM of extracellular Mn^2+. The rates of Ca^2+ entry were estimated from the slope of the liner portion of curves of the fura-2 fluorescence quench by Mn^2+. To evaluate Ca^2+ release from the intracellular stores, cells grown on coverslips were placed in D-PBS, and the mobilizer of the endoplasmic reticulum Ca^2+-stores, thapsigargin (1 μM), was added after recording the basal [Ca^2+]i. The peak values of the [Ca^2+]i increase, indicating the filling level of the Ca^2+-stores, were measured with fura-2.
# To investigate mechanism of a sustained increase in [Ca^2+]i after treatment with PMFs, the rates of the background Ca^2+ influx from the extracellular space and the magnitudes of Ca^2+ release from the endoplasmic reticulum stores with thapsigargin were measured in the treated cells using methods described above.
# In FIG. 11A through 11D, the concentration for each PMF was as follows: compound 4: 6.25 μM; compound 5: 12.5 μM; compound 6: 25 μM; and compound 7: 25 μM. […] The Ca^2+ entry rates (C, D) are presented as tangents of the linear portions of the fura-2 quench curves. Data in panel C are presented as means±SE for control cells or cells treated with PMFs 3 days (black bars) or 6 days (gray bars). […] Mn^2+ or thapsigargin was added after recording the basal level of fluorescence or basal [Ca^2+]i for 30-60 s.
# [Ca^2+]i in MCF-7 cells = Intracellular calcium measurement (fluo-3); conditions: for Intracellular Ca^2+ levels, in words: 50-100 μM, day 6; for Basal level of [Ca^2+]i, in words: fluo-3/AM, day 3 and 6, dose-dependent
# Procedure: Concentration of intracellular free Ca^2+ ([Ca^2+]i) was measured with Ca^2+ indicators fura-2 and fluo-3, as described in detail previously, for example, in Sergeev (2004) J. Steroid Biochem. Mol. Biol. 89-90:419-425. For [Ca^2+]i measurements with fluo-3, cells grown in the 96-well, black-wall plates were loaded with 2 μM of fluo-3/AM (Molecular Probes) in Dulbecco's PBS (D-PBS) supplemented with 0.1% DMSO for 40 min at 37° C. Fluorescence (485 nm excitation, 530 nm emission) was measured in the FLx800 plate reader, as described above. For [Ca^2+]i measurements with fura-2, cells grown on coverslips were loaded with 1 μM of fura-2/AM (Molecular Probes) in D-PBS supplemented with 0.1% DMSO and 0.01% Pluronic F-127 for 40 min at 37° C. The dynamics of intracellular Ca^2+ was assessed with cells in the microincubation chamber (37.0±0.2° C.) on a NIKON ECLIPSE TE-300 inverted microscope equipped for epifluorescence, ratiometric, digital imaging. The images were captured using SUPERFLUOR 40× 1.3 NA oil-immersion objective (Nikon) and COOLSNAPFX digital CCD camera (Photometrics), ratioed (340/380 nm excitation, 510 nm emission) on a pixel-by-pixel basis, and stored for analysis. Image analysis was performed using METAFLUOR 6.3 software (Molecular Devices/Universal Imaging).
# caspase-12 = experiment: Caspase-12 activity assay (fluorogenic substrate, immunofluorescence); conditions: MCF-7 cells, day 3 or 6, FIG. 12B, 13C,D
# Procedure: Calpain and caspase-12 activities were measured with the cell-permeable fluorogenic peptide substrates t-Boc-Leu-Met-CMAC (50 μM; CMAC, 7-amino-4-chloromethyl coumarin; Molecular Probes) and Ala-Thr-Ala-Asp-AFC (50 μM; AFC, 7-amino-4-trifluoromethyl coumarin; Caspase-12 Fluorometric Assay Kit, BioVision), respectively. See, e.g., Roser and Gores (2000) Meth. Mol. Biol. 144:2452-2466. Polyclonal antibodies directed against caspase-12 (BioVision) and monoclonal antibodies directed against the calpain small (cleaved) subunit (Chemicon) were used to evaluate activation of these proteases. For immunofluorescence labeling, the fixed and permeabilized cell preparations were pre-incubated with non-specific serum for 20 min, incubated for 1 h at 37° C. or overnight at 4° C. with the primary antibodies and 1 h at room temperature with secondary antibodies using ALEXA FLUOR-488 signal-amplification mouse antibodies (Molecular Probes) and FITC- or Texas Red-conjugated anti-rabbit and anti-mouse IgG (Molecular Probes). Fluorescence microscopy was carried out as described above for Ca^2+ imaging. Image analysis and measurement of fluorescence intensity was performed using MetaMorph 6.3 software (Molecular Devices/Universal Imaging), as described previously in Sergeev (1996) Endocrine 5: 335-340.
# [4] = day 3 and 6 of treatment, dose-dependent
Compound,"Induction of cell apoptosis (ECmin, apparent minimal effective concentration) [1]","Induction of apoptosis (Annexin V), in words ([1]; 50-100 μM, day 6 of treatment)","Induction of cell death (ECmin, apparent minimal effective concentration) [2]","Cell death (propidium iodide), in words [2]","Ca^2+ influx, in words [3]","Increase in [Ca^2+]i (ECmin, apparent minimal effective concentration) ([Ca^2+]i in MCF-7 cells)","Intracellular Ca^2+ levels, in words ([Ca^2+]i in MCF-7 cells)","Caspase-12 activation, in words (caspase-12)","Proapoptotic activity (Annexin V), in words ([1]; 25-100 μM, day 6 of treatment)",Apoptosis by morphological criteria (nuclear fragmentation) [1],"Induction of apoptosis (Annexin V), in words [1, 4]",Increase of Ca^2+ influx (Ca^2+ entry rates) [3],"Basal level of [Ca^2+]i, in words ([Ca^2+]i in MCF-7 cells)"
"COc1ccc(-c2cc(=O)c3c(OC)c(OC)c(OC)cc3o2)cc1OC [Compound 7, 5,6,7,3′,4′-pentamethoxyflavone, reference compound]",>50 µM,only a trend in inducing apoptosis,>50 µM,not effective in inducing non-apoptotic cell death,did not significantly increase Ca^2+ influx,>50 µM,only a trend in increasing intracellular Ca^2+ levels,No significant calpain and caspase-12 activation,–,–,–,–,–
"COc1ccc(-c2oc3c(OC)c(OC)c(OC)c(OC)c3c(=O)c2OC)cc1OC [D, 3,5,6,7,8,3,4-heptamethoxyflavone, reference compound]",>50 µM,–,>50 µM,not effective in inducing non-apoptotic cell death,did not significantly increase Ca^2+ influx,>50 µM,only a trend in increasing intracellular Ca^2+ levels,No significant calpain and caspase-12 activation,low proapototic activity,confirmed apoptosis,–,–,–
"COc1ccc(-c2cc(=O)c3c(OC)c(OC)c(OC)cc3o2)cc1O [Compound 5, 3′-hydroxy-5,6,7,4′-tetramethoxyflavone]",3.125 µM,–,6.25 µM,induced death of MCF-7 breast cancer cells,–,3.125 µM,–,activation,–,confirmed apoptosis,induced apoptosis,1.6 fold,induced an increase in the basal level of [Ca^2+]i
"COc1ccc(-c2oc3c(OC)c(OC)c(OC)c(O)c3c(=O)c2OC)cc1OC [Compound C, 5-hydroxy-3,6,7,8,3′,4′-hexamethoxyflavone]",1.56 µM,–,3.125 µM,induced death of MCF-7 breast cancer cells,–,1.56 µM,–,activation,–,confirmed apoptosis,induced apoptosis,1.8 fold,induced an increase in the basal level of [Ca^2+]i
